The record followed here is patent publication US12466801B2, “Cannabichromene derivatives and use thereof” (Remedy Processors LLC, priority 2023, dated 2025).

One assay deals with cancer cell lines. Description: National Cancer Institute (NCI) 60 cell cancer screen, growth inhibition. It counts as cell-based. To be noted: multiple dose study (dose-response); leukemia, non-small cell, colon, CNS, melanoma, ovarian, renal, prostate, breast cancer cell lines (FIGS. 3-11). As for the experimental part: (§1) A multiple dose study (dose-response) was then performed using Compound 8 across multiple cancer cell lines. […] A multiple dose study (dose-response) was then performed in PC3 cells using Compound 9. […] (See FIG. 2) The data was generated according to the National Cancer Institute (NCI) 60 cell cancer screen.

For assay [1], the system named is prostate cancer PC3 cells. Description: NCI 60 cell cancer screen, multiple dose study (dose-response) in PC3 cells. It is filed as cell-based. The note with it: FIG. 2. As for the experimental part: FIG. 2 provides data from a multiple dose study (dose-response) performed in prostate cancer PC3 cells.
as §1

Assay [2] has as its target dopamine transporter (DAT) (Homo sapiens, UniProt Q01959). Description: CNS receptor testing, affinity at dopamine transporter. It is filed as binding. The note with it: for affinity and selectivity for the dopamine transporter (DAT): result in words. As for the experimental part: The compounds were tested for affinity at various central nervous system receptors.

pKi: −log10 of the molar value.

dopamine transporter (DAT), sequence (Q01959 whole entry, species assumed): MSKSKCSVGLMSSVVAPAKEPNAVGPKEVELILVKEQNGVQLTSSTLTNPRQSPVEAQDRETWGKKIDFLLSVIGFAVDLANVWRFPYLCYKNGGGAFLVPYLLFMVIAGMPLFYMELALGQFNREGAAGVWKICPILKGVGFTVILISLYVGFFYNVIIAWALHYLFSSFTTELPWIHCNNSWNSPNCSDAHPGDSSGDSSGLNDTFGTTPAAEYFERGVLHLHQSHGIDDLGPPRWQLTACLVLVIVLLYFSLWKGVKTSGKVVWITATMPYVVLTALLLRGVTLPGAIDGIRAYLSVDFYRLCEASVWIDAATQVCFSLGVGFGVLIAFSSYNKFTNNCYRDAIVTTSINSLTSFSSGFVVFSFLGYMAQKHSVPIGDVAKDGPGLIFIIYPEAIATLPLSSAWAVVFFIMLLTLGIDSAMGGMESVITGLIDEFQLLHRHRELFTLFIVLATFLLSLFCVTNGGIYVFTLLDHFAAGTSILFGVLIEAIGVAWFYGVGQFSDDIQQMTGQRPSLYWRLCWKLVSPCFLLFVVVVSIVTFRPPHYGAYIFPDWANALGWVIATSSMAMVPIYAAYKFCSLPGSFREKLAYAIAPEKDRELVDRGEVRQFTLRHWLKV

Regarding `CCCCCc1cc(NC(=O)C(Cl)Cl)c2c(c1)OC(C)(CCC=C(C)C)C=C2` (stereo not drawn) [Compound 8], in the assay with cancer cell lines, the “growth inhibition across multiple cancer cell lines” value is recorded as “provided growth inhibition”.
Take `CCCCCc1cc(NC(=O)CC(F)(F)F)c2c(c1)OC(C)(CCC=C(C)C)C=C2` (stereo not drawn) [Compound 9]: the “growth inhibition of PC3 cells” value in assay [1] is listed as “inhibits the growth”.
As to `CCCCCc1cc(NC(=O)C(F)(F)Br)c2c(c1)OC(C)(CCC=C(C)C)C=C2` (stereo not drawn) [Compound 10], in assay [2], the negative-log Ki (pKi) – broadly, the negative decadic logarithm of the Ki, by convention in mol/L – is 7.07; the “affinity and selectivity for the dopamine transporter (DAT)” value was “good affinity and selectivity”.
On to `CCCCCc1cc(NC(=O)CCCC)c2c(c1)OC(C)(CCC=C(C)C)C=C2` (stereo not drawn) [Compound 12], for which, in assay [2], the negative logarithm of the Ki (pKi) is 6.97; the “affinity and selectivity for the dopamine transporter (DAT)” value is “good affinity and selectivity”.
